In brackets after ≈: the same amount, converted by molar mass. Where two headings read alike, the source gives them in different places.
How the values were obtained:
[1] = tested on: Methicillin-Resistant Staphylococcus aureus (MRSA); assay: Taurolidine MIC by broth microdilution, methicillin-resistant S. aureus (EMRSA 15); type: cell-based; settings: compared to NCTC 6571 or previous studies with fully sensitive strains
Experimental: All test strains were clinical isolates recovered from patients attending Hammersmith Hospital, London. Strains of Staphylococcus aureus (epidemic methicillin-resistant strain 15 (EMRSA 15) and vancomycin-resistant Enterococcus faecalis were broadly unselected isolates from local culture collections. However, strain selection was conducted so as to ensure that isolates were not consecutive isolates from individual patients.
Taurolidine MICs were performed using a sample of authenticated anhydrous micronised taurolidine batch number E/40522/4 (Geistlich Pharma AG, Wolhusen, Switzerland).
An aqueous stock solution of taurolidine was prepared to contain 2 g/100 ml taurolidine in water. This preparation was solubilized and sterilized by heating to 121° C. (15 psi) for 15 minutes.
Using this stock solution, serial doubling dilution of taurolidine were prepared in Unipath (Oxoid) Nutrient Broth Number 2 using 50 μl volumes in sterile round bottom microdilution trays. To these dilutions was added an equal volume of drug-free broth containing a suspension of the test organism to give a final inoculumn density of approximately 10^3 cfu. Inocula were prepared from overnight drug-free broth cultures of each test organism in Unipath (Oxoid) Nutrient Broth Number 2.
Final test concentrations of taurolidine were as follows:
All tests were incubated at 37 C for 18 hours. […]

[2] = tested on: TNF production; assay: TNF production in human blood / antibiotic-treated cultures; type: cell-based
Text: Taurolidine and/or Taurultam prevent over-production of cytokines in the patient by monocytes of the blood.

[3] = tested on: E. faecium; assay: Two percent taurolidine solution tested against bacteria, E. faecium (Example 5); type: cell-based; settings: Enterococcus faecium, 48 h, 5×10^4 CFU/well, one line per sample (strain)
Experimental: (§1) Two percent taurolidine solution was tested against various bacteria at 5×10^4 CFU/well, according to Manual of Clinical Microbiology, 6th edition, P. R. Murray et al., pp. 1334-1335.

[4] = tested on: Staph. app.; assay: Two percent taurolidine solution tested against bacteria, Staph. app. (Example 5); type: cell-based; settings: 5×10^4 CFU/well
Experimental: as §1

[5] = tested on: Enterococci; assay: Taurolidine in vitro susceptibility, Enterococci overall (Example 4); type: cell-based, Enterococcus faecium and Enterococcus faecalis
Text: (§2) The in vitro susceptibility to taurolidine of a panel of clinical isolates and reference strains of Enterococcus faecium (n=20,7 strains vancomycin resistant) and Enterococcus faecalis (n-53,5 strains vancomycin resistant) has been examined. […] In all cases, the Minimum Bacteriocidal Concentration (MBC) of taurolidine was within 2 dilutions of the corresponding value for MIC confirming a bactericidal mode of action. In vitro resistance to taurolidine was not observed.

[6] = tested on: bacteria and fungi; settings: known antimicrobial substances; cited from earlier work
[7] = tested on: Enterococcus faecalis; assay: Taurolidine in vitro susceptibility, E. faecalis (Example 4); type: cell-based
Text: as §2

With `O=S1(=O)CCN(CN2CCS(=O)(=O)NC2)CN1` [Taurolidine] the “difference in level of susceptibility to taurolidine” value [1] was “no difference in level of susceptibility to taurolidine”, the TNF production ([2]; added to antibiotic-treated cultures) was “prevents a rise in TNF production” and the “neutralization of released endotoxins” value ([2]; antibiotic-treated cultures) was “nearly complete neutralization of released endotoxins”. It also gave an MIC [3] of 250 µg/mL (≈ 879 µM), an MBC ([4]; 24 h) of 375 µg/mL (≈ 1320 µM) and an MIC ([4]; 24 h, read-out: MIC 24 h) of 190 µg/mL (≈ 668 µM). For the same compound, the MIC ([4]; 48 h, read-out: MIC 48 h) was 250 µg/mL (≈ 879 µM), the “difference in degree of susceptibility between E. faecalis and E. faecium” value [5] was “no difference in degree of susceptibility” and the “In vitro resistance to taurolidine” value ([5]; E. faecium and E. faecalis) was “not observed”. For the same compound, the “MBC relative to corresponding MIC” value ([5]; all cases, bactericidal mode of action) was at most 2 dilutions, the “difference in MICs or MBCs between strains” value ([5]; vancomycin-sensitive or vancomycin-resistant, various locations across Europe) was “No differences were noted” and the antimicrobial spectrum [6] was “broad-spectrum activity against aerobic and anaerobic bacteria, mycobacteria and fungi”. It also gave an MIC ([7]; E. faecalis strains, read-out: MIC range) of 125 to 500 µg/mL (≈ 440 to 1760 µM), an MBC ([7]; E. faecalis, VAN R strains, read-out: MBC, Avg.) of 500 µg/mL (≈ 1760 µM) and an MBC ([7]; E. faecalis, VAN R strains, read-out: MBC, Max.) of 750 µg/mL (≈ 2640 µM). For the same compound, the MBC ([7]; E. faecalis, VAN R strains, read-out: MBC, Mean) was 500 µg/mL (≈ 1760 µM), the MBC ([7]; E. faecalis, VAN R strains, read-out: MBC, Median) was 500 µg/mL (≈ 1760 µM) and the MBC ([7]; E. faecalis, VAN R strains, read-out: MBC, Min.) was 500 µg/mL (≈ 1760 µM). It also gave an MBC ([7]; E. faecalis, VAN R strains, read-out: MBC, Mode) of 500 µg/mL (≈ 1760 µM), an MIC ([7]; E. faecalis, VAN R strains, read-out: MIC, Avg.) of 213 µg/mL (≈ 749 µM) and an MIC ([7]; E. faecalis, VAN R strains, read-out: MIC, Max.) of 375 µg/mL (≈ 1320 µM). For the same compound, the MIC ([7]; E. faecalis, VAN R strains, read-out: MIC, Mean) was 213 µg/mL (≈ 749 µM), the MIC ([7]; E. faecalis, VAN R strains, read-out: MIC, Median) was 250 µg/mL (≈ 879 µM) and the MIC ([7]; E. faecalis, VAN R strains, read-out: MIC, Min.) was 125 µg/mL (≈ 440 µM). The MIC ([7]; E. faecalis, VAN R strains, read-out: MIC, Mode) was 250 µg/mL (≈ 879 µM), the MBC ([7]; E. faecalis, VAN S strains, read-out: MBC, Avg.) was 566 µg/mL (≈ 1990 µM) and the MBC ([7]; E. faecalis, VAN S strains, read-out: MBC, Max.) was 750 µg/mL (≈ 2640 µM). It also gave an MBC ([7]; E. faecalis, VAN S strains, read-out: MBC, Mean) of 566 µg/mL (≈ 1990 µM), an MBC ([7]; E. faecalis, VAN S strains, read-out: MBC, Median) of 500 µg/mL (≈ 1760 µM) and an MBC ([7]; E. faecalis, VAN S strains, read-out: MBC, Min.) of 375 µg/mL (≈ 1320 µM). For the same compound, the MBC ([7]; E. faecalis, VAN S strains, read-out: MBC, Mode) was 500 µg/mL (≈ 1760 µM), the MIC ([7]; E. faecalis, VAN S strains, read-out: MIC, Avg.) was 289 µg/mL (≈ 1020 µM) and the MIC ([7]; E. faecalis, VAN S strains, read-out: MIC, Max.) was 500 µg/mL (≈ 1760 µM). For the same compound, the MIC ([7]; E. faecalis, VAN S strains, read-out: MIC, Mean) was 289 µg/mL (≈ 1020 µM), the MIC ([7]; E. faecalis, VAN S strains, read-out: MIC, Median) was 250 µg/mL (≈ 879 µM) and the MIC ([7]; E. faecalis, VAN S strains, read-out: MIC, Min.) was 190 µg/mL (≈ 668 µM). The MIC ([7]; E. faecalis, VAN S strains, read-out: MIC, Mode) was 250 µg/mL (≈ 879 µM), the MBC ([7]; E. faecalis, VAN S, Germany, read-out: MBC, (VAN S) model) was 750 µg/mL (≈ 2640 µM) and the MIC ([7]; E. faecalis, VAN S, Germany, read-out: MIC, (VAN S) model) was 375 µg/mL (≈ 1320 µM). For the same compound, the MBC ([7]; E. faecalis, VAN S, Switzerland, read-out: MBC, (VAN S) model) was 500 µg/mL (≈ 1760 µM), the MIC ([7]; E. faecalis, VAN S, Switzerland, read-out: MIC, (VAN S) model) was 375 µg/mL (≈ 1320 µM) and the MBC ([7]; E. faecalis, VAN S, UK, read-out: MBC, (VAN S) model) was 500 µg/mL (≈ 1760 µM). It also gave an MIC ([7]; E. faecalis, VAN S, UK, read-out: MIC, (VAN S) model) of 250 µg/mL (≈ 879 µM), an MBC ([7]; E. faecalis, all strains, read-out: MBC, Avg.) of 606 µg/mL (≈ 2130 µM) and an MBC ([7]; E. faecalis, all strains, read-out: MBC, Max.) of 750 µg/mL (≈ 2640 µM). The MBC ([7]; E. faecalis, all strains, read-out: MBC, Mean) was 606 µg/mL (≈ 2130 µM), the MBC ([7]; E. faecalis, all strains, read-out: MBC, Median) was 500 µg/mL (≈ 1760 µM) and the MBC ([7]; E. faecalis, all strains, read-out: MBC, Min.) was 375 µg/mL (≈ 1320 µM). For the same compound, the MBC ([7]; E. faecalis, all strains, read-out: MBC, Mode) was 500 µg/mL (≈ 1760 µM).
